Laboratory results taken from patent US7445765B2, “Radiopharmaceutical for diagnostic imaging containing a technetium-99m nitride heterocomplex” (Nihon Medi-Physics Co., Ltd., priority 2000, dated 2008).
Each block holds one compound with its values, some of them ahead of it.

Experiment: Biodistribution of the 99mTc(N) heterocomplexes in rats (organ uptake, heart accumulation, heart/lung and heart/liver ratios)
Assay type: in vivo, female Sprague-Dawley rats
Settings: rats
Description: The biodistribution was measured by using female Sprague-Dawley rats (SD rats) weighing 200 g to 250 g. Each of the ^99mTc(N) heterocomplexes purified in the manner described above was diluted with phosphate buffer (0.1 M, pH=7.4) to obtain a final solution having an ethanol content of 10%. After the SD rats were anesthetized with an intramuscular injection of a mixture of ketamine (80 mg/kg) and xilazine (19 mg/kg), the jugular vein of each rat was surgically exposed and 100 μL (300 to 370 kBq) of the solution containing each ^99mTc(N) heterocomplexes prepared in the manner described above was injected in the jugular vein. The rats (n=3) were sacrificed by cervical dislocation at different times post injection. The blood was withdrawn from the heart through a syringe and counted. It was assumed that the whole blood content was 6.5% of the total body weight. The organs were excised from the rats, washed with physiological saline, weighed, and counted in a NaI well counter.
For comparison, Tables 19 and 20 show the results, obtained in the same manner as above, of measuring the biodistribution of (^99mTc) (MIBI) and (^99mTc) (Tf) which have been used as pharmaceuticals for diagnostic imaging for blood flow in myocardium.
Tables 21 to 23 show data showing the variations with time of heart accumulation, heart/lung ratios and heart/liver ratios for the ^99mTc(N) heterocomplexes of the present invention.

Heart accumulation (0 min): 2.26 ± 0.82 % ID/g
Heart accumulation (2 min): 1.24 ± 0.14 % ID/g
Heart accumulation (10 min): 1.39 ± 0.30 % ID/g
Heart accumulation (20 min): 1.18 ± 0.18 % ID/g
Heart accumulation (30 min): 1.05 ± 0.19 % ID/g
Heart accumulation (60 min): 1.10 ± 0.11 % ID/g
Heart accumulation (120 min): 1.29 ± 0.16 % ID/g
Compound: CCOCCC[P]1(CCCOCC)CCN(CCOCC)CC[P](CCCOCC)(CCCOCC)[99Tc+]12(#[N])[S]C(N(CCOCC)CCOCC)=[S]2 [[^99m−Tc(N) (PNP6) (DBODC)^+]]

Biodistribution, Adrenal glands (0 min): 2.80 ± 0.17 % ID/g
Biodistribution, Blood (0 min): 0.34 ± 0.07 % ID/g
Biodistribution, Brain (0 min): 0.26 ± 0.01 % ID/g
Biodistribution, Heart (0 min): 3.56 ± 0.22 % ID/g
Biodistribution, Intestine (0 min): 3.55 ± 0.37 % ID/g
Biodistribution, Kidneys (0 min): 9.23 ± 0.62 % ID/g
Biodistribution, Liver (0 min): 1.36 ± 0.12 % ID/g
Biodistribution, Lungs (0 min): 1.65 ± 0.08 % ID/g
Biodistribution, Muscle (0 min): 0.24 ± 0.04 % ID/g
Biodistribution, Spleen (0 min): 2.65 ± 0.26 % ID/g
Biodistribution, Submaxillary glands (0 min): 1.43 ± 0.41 % ID/g
Biodistribution, Adrenal glands (2 min): 1.60 ± 0.01 % ID/g
Biodistribution, Blood (2 min): 0.11 ± 0.01 % ID/g
Biodistribution, Brain (2 min): 0.04 ± 0.01 % ID/g
Biodistribution, Heart (2 min): 3.25 ± 0.17 % ID/g
Biodistribution, Intestine (2 min): 3.71 ± 0.01 % ID/g
Biodistribution, Kidneys (2 min): 10.12 ± 0.15 % ID/g
Biodistribution, Liver (2 min): 1.88 ± 0.08 % ID/g
Biodistribution, Lungs (2 min): 1.18 ± 0.13 % ID/g
Biodistribution, Muscle (2 min): 0.14 ± 0.00 % ID/g
Biodistribution, Spleen (2 min): 2.76 ± 0.66 % ID/g
Biodistribution, Submaxillary glands (2 min): 1.01 ± 0.23 % ID/g
Biodistribution, Adrenal glands (10 min): 3.28 ± 0.39 % ID/g
Biodistribution, Blood (10 min): 0.07 ± 0.01 % ID/g
Biodistribution, Brain (10 min): 0.05 ± 0.01 % ID/g
Biodistribution, Heart (10 min): 3.37 ± 0.45 % ID/g
Biodistribution, Intestine (10 min): 5.40 ± 0.33 % ID/g
Biodistribution, Kidneys (10 min): 11.45 ± 1.62 % ID/g
Biodistribution, Liver (10 min): 2.21 ± 0.27 % ID/g
Biodistribution, Lungs (10 min): 1.36 ± 0.31 % ID/g
Biodistribution, Muscle (10 min): 0.18 ± 0.01 % ID/g
Biodistribution, Spleen (10 min): 3.16 ± 0.62 % ID/g
Biodistribution, Submaxillary glands (10 min): 1.12 ± 0.12 % ID/g
Biodistribution, Adrenal glands (20 min): 3.05 ± 0.04 % ID/g
Biodistribution, Blood (20 min): 0.05 ± 0.01 % ID/g
Biodistribution, Brain (20 min): 0.04 ± 0.01 % ID/g
Biodistribution, Heart (20 min): 3.16 ± 0.22 % ID/g
Biodistribution, Intestine (20 min): 4.90 ± 0.23 % ID/g
Biodistribution, Kidneys (20 min): 8.14 ± 1.30 % ID/g
Biodistribution, Liver (20 min): 1.98 ± 0.60 % ID/g
Biodistribution, Lungs (20 min): 0.99 ± 0.11 % ID/g
Biodistribution, Muscle (20 min): 0.15 ± 0.05 % ID/g
Biodistribution, Spleen (20 min): 2.11 ± 0.18 % ID/g
Biodistribution, Submaxillary glands (20 min): 1.07 ± 0.04 % ID/g
Biodistribution, Adrenal glands (30 min): 3.49 ± 0.67 % ID/g
Biodistribution, Blood (30 min): 0.05 ± 0.01 % ID/g
Biodistribution, Brain (30 min): 0.04 ± 0.02 % ID/g
Biodistribution, Heart (30 min): 3.70 ± 0.04 % ID/g
Biodistribution, Intestine (30 min): 5.42 ± 0.05 % ID/g
Biodistribution, Kidneys (30 min): 6.46 ± 0.11 % ID/g
Biodistribution, Liver (30 min): 1.37 ± 0.22 % ID/g
Biodistribution, Lungs (30 min): 0.72 ± 0.01 % ID/g
Biodistribution, Muscle (30 min): 0.17 ± 0.05 % ID/g
Biodistribution, Spleen (30 min): 2.89 ± 0.29 % ID/g
Biodistribution, Submaxillary glands (30 min): 1.08 ± 0.09 % ID/g
Biodistribution, Adrenal glands (60 min): 3.50 ± 0.60 % ID/g
Biodistribution, Blood (60 min): 0.03 ± 0.00 % ID/g
Biodistribution, Brain (60 min): 0.04 ± 0.00 % ID/g
Biodistribution, Heart (60 min): 3.18 ± 0.17 % ID/g
Biodistribution, Intestine (60 min): 6.49 ± 1.43 % ID/g
Biodistribution, Kidneys (60 min): 4.42 ± 0.11 % ID/g
Biodistribution, Liver (60 min): 1.57 ± 0.11 % ID/g
Biodistribution, Lungs (60 min): 0.47 ± 0.24 % ID/g
Biodistribution, Muscle (60 min): 0.18 ± 0.01 % ID/g
Biodistribution, Spleen (60 min): 1.88 ± 0.15 % ID/g
Biodistribution, Submaxillary glands (60 min): 1.17 ± 0.05 % ID/g
Biodistribution, Adrenal glands (120 min): 2.43 ± 0.13 % ID/g
Biodistribution, Blood (120 min): 0.02 ± 0.00 % ID/g
Biodistribution, Brain (120 min): 0.03 ± 0.00 % ID/g
Biodistribution, Heart (120 min): 3.04 ± 0.14 % ID/g
Biodistribution, Intestine (120 min): 4.15 ± 1.02 % ID/g
Biodistribution, Kidneys (120 min): 3.49 ± 0.05 % ID/g
Biodistribution, Liver (120 min): 1.02 ± 0.23 % ID/g
Biodistribution, Lungs (120 min): 0.47 ± 0.06 % ID/g
Biodistribution, Muscle (120 min): 0.28 ± 0.05 % ID/g
Biodistribution, Spleen (120 min): 1.23 ± 0.18 % ID/g
Biodistribution, Submaxillary glands (120 min): 1.19 ± 0.05 % ID/g
Compound: [99Tc].[C-]#[N+]CC(C)(C)OC.[C-]#[N+]CC(C)(C)OC.[C-]#[N+]CC(C)(C)OC.[C-]#[N+]CC(C)(C)OC.[C-]#[N+]CC(C)(C)OC.[C-]#[N+]CC(C)(C)OC [(^99mTc) (MIBI), reference compound]

Heart/liver ratio in biodistribution (0 min): 0.63
Heart/lung ratio in biodistribution (0 min): 0.58
Heart/liver ratio in biodistribution (2 min): 0.21
Heart/lung ratio in biodistribution (2 min): 0.99
Heart/liver ratio in biodistribution (10 min): 0.18
Heart/lung ratio in biodistribution (10 min): 1.26
Heart/liver ratio in biodistribution (20 min): 0.18
Heart/lung ratio in biodistribution (20 min): 1.48
Heart/liver ratio in biodistribution (30 min): 0.23
Heart/lung ratio in biodistribution (30 min): 1.75
Heart/liver ratio in biodistribution (60 min): 0.31
Heart/lung ratio in biodistribution (60 min): 2.29
Heart/liver ratio in biodistribution (120 min): 0.51
Heart/lung ratio in biodistribution (120 min): 3.91
Compound: CCOCCC[P]1(CCCOCC)CCN(CCOCC)CC[P](CCCOCC)(CCCOCC)[99Tc+]12(#[N])[S]C(N(CCOCC)CCOCC)=[S]2 [[^99mTc(N) (PNP6) (DBODC)^+]]

Heart/liver ratio in biodistribution (0 min): 6.11
Heart/lung ratio in biodistribution (0 min): 0.76
Heart/liver ratio in biodistribution (2 min): 1.48
Heart/lung ratio in biodistribution (2 min): 3.98
Heart/liver ratio in biodistribution (10 min): 2.29
Heart/lung ratio in biodistribution (10 min): 4.19
Heart/liver ratio in biodistribution (20 min): 3.78
Heart/lung ratio in biodistribution (20 min): 6.37
Heart/liver ratio in biodistribution (30 min): 5.18
Heart/lung ratio in biodistribution (30 min): 5.83
Heart/liver ratio in biodistribution (60 min): 18.8
Heart/lung ratio in biodistribution (60 min): 8.17
Heart/liver ratio in biodistribution (120 min): 33.1
Heart/lung ratio in biodistribution (120 min): 13.24
Compound: CCOCCN1CC[P](CCCOC)(CCCOC)[99Tc+]2(#[N])([S]C(N(CCOCC)CCOCC)=[S]2)[P](CCCOC)(CCCOC)CC1 [[^99mTc(N) (PNP5) (DBODC)^+]]
